Test results from patent publication US9248124B2, “Use of inhibitors of IκB kinase for the treatment of cancer” (Millennium Pharmaceuticals, Inc., priority 2001, dated 2016).
Entries after “also recorded” stand apart in the source; their conditions may differ.

Assays:
[1] = test system: MM.1S cells; assay: DNA synthesis ([3H]-TdR uptake) in MM.1S cells with Dex, IL-6, Thal or IMiD3; assay type: cell-based, human; settings: IMiD3 0.25-1 μM, dose dependent, 48 h; FIG. 9
Procedure: (§1) Proliferation was measured as previously described (Hideshima et al., Blood 96:2943 (2000)). MM cells (3×10^4 cells/well) were incubated in 96-well culture plates (Costar, Cambridge, Mass.) in the presence of media, PS-341, compound 1 and/or Dex or recombinant human IL-6 (Genetics Institute, Cambridge, Mass.) for 48 h at 37° C. DNA synthesis was measured by [^3H]-thymidine ([^3H]-TdR, NEN Products, Boston, Mass.) uptake. Cells were pulsed with [^3H]TdR (0.5 μCi/well) during the last 8 h of 48 h cultures. All experiments were performed in triplicate.

[2] = test system: MM.1S cells; settings: previously reported, Hideshima et al. Blood 96:2943 (2000); cited from earlier work
[3] = test system: IκBα phosphorylation and degradation in MM.1S cells; assay: Immunoblot of IκBα phosphorylation and degradation triggered by TNFα in MM.1S cells; assay type: cell-based, human; settings: Dex 1 μM 18 h, PS-341 5 μM 60 min, compound 1 10 μM 90 min, TNFα 5 ng/mL 5 min, FIG. 7; for TNFα-induced phosphorylation of IκBα: presence or absence of IL-6
Procedure: (§2) MM cells were cultured with PS-341 or compound 1; harvested; washed; and lysed using lysis buffer: 50 mM Tris-HCl (pH 7.4), 150 mM NaCl, 1% NP-40, 5 mM EDTA, 5 mM NaF, 2 mM Na3VO4, 1 mM PMSF, 5 μg/mL leupeptin, and 5 μg/mL aprotinin. For detection of phospho-IκBα, IκBα, phospho-MAPK, phospho-STAT3, ERK2 or alpha-tubulin, cell lysates were subjected SDS-PAGE, transferred to PVDF membrane (Bio-Rad Laboratories, Hercules, Calif.), and immunoblotted with anti-phospho-IκBα, -IκBα, -phospho-MAPK, or -phospho-STAT3 Abs (Cell Signaling, Beverly, Mass.), and anti-alpha-tubulin (Sigma) Abs.
Inhibition of IκBα phosphorylation by compound 1 was assayed in MM.1S and patient MM cells triggered by TNFα. […] To study the dose-dependent effect of compound 1, MM.1S cells were pre-treated with 1.25-40 μM compound 1 for 90 min, and then stimulated by TNFα (5 ng/mL).
The effect of Dex, compound 1, PS-341 and/or IL-6 on TNFα induced phosphorylation of IκBα in MM.1S cells was next examined. […] In contrast compound 1, in the presence or absence of IL-6, inhibits phosphorylation of IκBα. Dex inhibits TNFα-induced degradation of IκBα, whereas IL-6 blocks this effect. Both PS-341 and compound 1 inhibit degradation of IκBα, in the presence or absence of IL-6.

[4] = test system: p42/44 MAPK phosphorylation; assay: Immunoblot of IL-6 induced p42/44 MAPK phosphorylation in MM.1S cells; assay type: cell-based, human; settings: IL-6 50 ng/mL for 5 min, compound 1 10 μM 90 min, PS-341 5 μM 60 min, FIG. 5
Procedure: as §2

[5] = test system: MM.1S, U266, and RPMI8226 cell lines; assay: DNA synthesis ([3H]-TdR uptake) in MM cell lines; assay type: cell-based, human; settings: 48 h; FIG. 3B
Procedure: as §1
To study the direct effect of compound 1 on MM cells, [3H]-TdR uptake was measured in MM.1S, U266, and RPMI8226 cell lines cultured for 48 h in the presence of compound 1 (1.5-50 μM).

[6] = test system: ICAM-1 and VCAM-1 expression on both BMSCs and MM cells; settings: Hideshima et al., Cancer Res. 61:3071 (2001); cited from earlier work

Nc1cccc2c1CN(C1CCC(=O)NC1=O)C2=O (stereo not shown) [IMiD3, reference compound]
DNA synthesis in MM.1S cell [1]: significantly (p<0.001) inhibited | MM.1S cell growth [2]: inhibit

C[C@@H]1C[C@H]2[C@@H]3CCC4=CC(=O)C=C[C@]4(C)[C@@]3(F)[C@@H](O)C[C@]2(C)[C@@]1(O)C(=O)CO [Dex, dexamethasone, reference compound]
TNFα-induced phosphorylation of IκBα [3]: does not inhibit

COc1cccc(-c2cc(=O)c3ccccc3o2)c1N [PD98059]
p42/44 MAPK phosphorylation [4]: selectively inhibits

CC(C)C[C@H](NC(=O)[C@H](Cc1ccccc1)NC(=O)c1cnccn1)B(O)O [PS-341, reference compound]
TNFα-induced phosphorylation of IκBα [3]: does not inhibit; also recorded: enhances | TNFα-induced degradation of IκBα [3]: inhibit | [3H]-TdR uptake in all cell lines tested [5]: completely inhibited | p42/44 MAPK phosphorylation [4]: inhibits | TNFα induction of ICAM-1 and VCAM-1 expression [6]: blocks induction

O=C1CCC(N2C(=O)c3ccccc3C2=O)C(=O)N1 (stereo not shown) [Thalidomide]
MM.1S cell growth [2]: inhibit
